Measurements reported in patent EP4603105A1, “PHARMACEUTICAL COMPOSITION CONTAINING CYCLIC COMPOUND HAVING SELECTIVE KRAS INHIBITORY EFFECT AGAINST HRAS AND NRAS” (CHUGAI SEIYAKU KABUSHIKI KAISHA, priority 2022, dated 2024).
Like-named read-outs stand apart in the source and are kept apart here.

Tests used:
[1] = molecular target: GDP-bound NRAS wild-type protein (Homo sapiens, UniProt P01111); assay: Binding to NRAS by surface plasmon resonance (SPR), KD and KD ratio to KRAS
Procedure, shortened: (§1)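 SPR, 30°C: Avi-biotin RAS·GDP captured via Biotin CAPture (~100–300 RU); running buffer HBS pH 7.4, 1 mM DTT, 10 mM MgCl2, 0.01% Tween 20, 10 µM GDP, 4% DMSO. Single-cycle kinetics, 100 µL/min, 75 s injections; 1:1 model → KD.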

[2] = molecular target: GDP-bound KRAS wild-type protein (Homo sapiens, UniProt P01116); assay: Binding to KRAS by surface plasmon resonance (SPR), dissociation constant KD
Procedure, shortened: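 GDP-bound biotin-Avi RAS captured at ~100–300 RU, 30°C, pH 7.4 HBS containing 10 µM GDP, 10 mM MgCl2, 1 mM DTT, 0.01% Tween 20 and 4% DMSO. KD by 1:1 fitting.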

[3] = system: human lung cancer strain NCI-H441; assay: NCI-H441 cell proliferation inhibitory activity (CellTiter-Glo, 4 days); assay type: cell-based; conditions: read-out: NCl-H441 IC50
Procedure, shortened: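 Proliferation was scored by […] measured after the reagent was added to cultures kept at 37°C in 5% carbon dioxide.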

HRAS wild-type protein = HRAS wild-type protein (Homo sapiens, UniProt P01112); assay: Binding to HRAS by surface plasmon resonance (SPR), KD and KD ratio to KRAS
Procedure, shortened: as §1

[4] = ratio of KD for GDP-bound NRAS wild-type protein to KD for KRAS
[5] = ratio of KD for HRAS wild-type protein to KD for KRAS
[6] = ratio of KD with respect to GDP-bound NRAS wild-type protein to KD with respect to KRAS
[7] = Single Cycle Kinetics, 1:1 binding model
[8] = 50% proliferation inhibitory concentration, four days
[9] = ratio of KD with respect to HRAS wild-type protein to KD with respect to KRAS

Chain of HRAS wild-type protein (P01112 whole entry): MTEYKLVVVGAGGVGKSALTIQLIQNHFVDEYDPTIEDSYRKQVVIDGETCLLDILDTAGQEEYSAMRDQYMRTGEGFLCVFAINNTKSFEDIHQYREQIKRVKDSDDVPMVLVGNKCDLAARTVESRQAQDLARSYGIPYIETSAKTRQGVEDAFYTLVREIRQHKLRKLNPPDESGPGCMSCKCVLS
Chain of GDP-bound NRAS wild-type protein (P01111 whole entry): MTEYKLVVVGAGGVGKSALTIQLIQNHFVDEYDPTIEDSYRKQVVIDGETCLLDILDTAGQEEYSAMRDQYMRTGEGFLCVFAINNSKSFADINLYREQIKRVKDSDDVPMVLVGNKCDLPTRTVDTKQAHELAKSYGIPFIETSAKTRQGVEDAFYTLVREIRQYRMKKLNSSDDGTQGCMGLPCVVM
Chain of GDP-bound KRAS wild-type protein (P01116 1-188 isoform P01116-2): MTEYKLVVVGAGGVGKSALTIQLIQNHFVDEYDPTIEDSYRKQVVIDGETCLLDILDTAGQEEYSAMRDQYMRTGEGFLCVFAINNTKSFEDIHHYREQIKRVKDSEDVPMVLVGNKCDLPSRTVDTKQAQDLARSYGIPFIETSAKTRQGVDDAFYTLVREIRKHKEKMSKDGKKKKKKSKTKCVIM

Row | SMILES | NRAS /KRAS [1, 4] | Kd ([2]; Single Cycle Kinetics) | IC50 ([3]; NCI-H441 cells, 4 days) | HRAS /KRAS (HRAS wild-type protein; [5]) | Kd ([2]; 1:1 binding model) | NRAS /KRAS [1, 6] | Kd [2, 7] | IC50 [3, 8] | HRAS /KRAS (HRAS wild-type protein; [9])
1 | CCC[C@H]1C(=O)N[C@@H]([C@@H](C)CC)C(=O)N2CCC[C@H]2C(=O)N(C)[C@H]2C/C(F)=C\CCN(C2=O)[C@@H](Cc2ccc(C)cc2)C(=O)N(C)CC(=O)N[C@@H](CCc2cc(F)c(C(F)(F)F)c(F)c2)C(=O)N2C[C@H](OCC)C[C@H]2C(=O)N(C)C2(CCC2)C(=O)N(C)[C@@H](C2CCCC2)C(=O)N(C)[C@H](C(=O)N(C)C)CC(=O)N1C [PP3526] | B (a compound having 3 or more and less than 10 is denoted as B) | 0.29 nM | 10.9 nM | B (a compound having 3 or more and less than 10 is denoted as B) |  |  |  |  | 
2 | CCCO[C@@H]1C[C@H]2C(=O)NC3(CC(C)(C)C3)C(=O)N(C)[C@@H](C3CCCC3)C(=O)N(C)[C@H](C(=O)N(C)CC)CC(=O)N(C)[C@@H](COCC)C(=O)N[C@@H]([C@@H](C)CC)C(=O)N3CCC[C@H]3C(=O)N(C)[C@H]3C/C=C\CCN(C3=O)[C@@H](Cc3ccc(C)cc3)C(=O)N(C)CC(=O)N[C@@H](CCc3ccc(C(F)(F)F)c(Cl)c3)C(=O)N2C1 [PP3463] | A (a compound having 10 or more and less than 20 is denoted as A) | 0.97 nM | 50.4 nM | A (a compound having 10 or more and less than 20 is denoted as A) |  |  |  |  | 
3 | CCC[C@H]1C(=O)N[C@@H](CC(C)C)C(=O)N(CC)CC(=O)N(C)[C@H]2C/C=C\CCN(C2=O)[C@@H](Cc2ccc(C)cc2)C(=O)N(C)CC(=O)N[C@@H](CCc2cc(F)c(C(F)(F)F)c(F)c2)C(=O)N2C[C@H](OCC)C[C@H]2C(=O)NC2(CC(C)(C)C2)C(=O)N(C)[C@@H](C2CCCC2)C(=O)N(C)[C@H](C(=O)N(C)C)CC(=O)N1C [PP2516] | A (a compound having 10 or more and less than 20 is denoted as A) |  | 124 nM | B (a compound having 3 or more and less than 10 is denoted as B) | 2.9 nM |  |  |  | 
4 | CCC[C@H]1C(=O)N[C@@H]([C@@H](C)CC)C(=O)N(C)CC(=O)N(C)[C@H]2C/C=C\CCN(C2=O)[C@@H](Cc2ccc(C(F)(F)F)cc2)C(=O)N(C)CC(=O)N[C@@H](CCc2ccc(C(F)(F)F)c(OC)c2)C(=O)N2C[C@H](OCC)C[C@H]2C(=O)N(C)C2(CCC2)C(=O)N(C)[C@@H](C(CC)CC)C(=O)N(C)[C@H](C(=O)N(C)C)CC(=O)N1C [PP2382] | A (a compound having 10 or more and less than 20 is denoted as A) |  | 4.6 nM | A (a compound having 10 or more and less than 20 is denoted as A) | 0.12 nM |  |  |  | 
5 | CCC(CC)[C@H]1C(=O)N(C)[C@H](C(=O)N(C)C)CC(=O)N(C)[C@@H](COC)C(=O)N[C@@H]([C@@H](C)CC)C(=O)N(C)CC(=O)N(C)[C@H]2C/C=C\CCN(C2=O)[C@@H](CC2CCC(F)(F)CC2)C(=O)N(C)CC(=O)N[C@@H](CCc2cc(F)c(C(F)(F)F)c(F)c2)C(=O)N2C[C@@H](C)C[C@H]2C(=O)NC2(CC(C)(C)C2)C(=O)N1C [PP2448] | A (a compound having 10 or more and less than 20 is denoted as A) |  | 26.9 nM | A (a compound having 10 or more and less than 20 is denoted as A) | 1.4 nM |  |  |  | 
6 | CCO[C@@H]1C[C@H]2C(=O)NC3(CCC3)C(=O)N(C)[C@@H](C3CCCC3)C(=O)N(C)[C@H](C(=O)N3CCCCC3)CC(=O)N(C)[C@@H](CC(C)C)C(=O)N[C@@H]([C@@H](C)CC)C(=O)N(C)CC(=O)N(C)[C@H]3C/C=C\CCN(C3=O)[C@@H](Cc3ccc(C(F)(F)F)cc3)C(=O)N(C)CC(=O)N[C@@H](CCc3cc(F)c(C(F)(F)F)c(F)c3)C(=O)N2C1 [PP1290] |  |  |  |  |  | AA (a compound having 20 or more is denoted as AA) | 0.24 nM | 15.4 nM | A (a compound having 10 or more and less than 20 is denoted as A)
7 | C#CCN1CC(=O)N(C)[C@H]2C/C=C\CCN(C2=O)[C@@H](Cc2ccc(C(F)F)cc2)C(=O)N(C)CC(=O)N[C@@H](CCc2cc(F)c(C(F)(F)F)c(F)c2)C(=O)N2C[C@H](OC(C)C)C[C@H]2C(=O)N(C)C2(CCC2)C(=O)N(C)[C@@H](C(CC)CC)C(=O)N(C)[C@H](C(=O)N(C)C)CC(=O)N(C)[C@@H](COCCC)C(=O)N[C@@H]([C@@H](C)OC)C1=O [PP3485] | A (a compound having 10 or more and less than 20 is denoted as A) | 0.75 nM | 12 nM | A (a compound having 10 or more and less than 20 is denoted as A) |  |  |  |  | 
8 | CCC(CC)[C@H]1C(=O)N(C)[C@H](C(=O)N(C)C)CC(=O)N(C)[C@@H](COC)C(=O)N[C@@H]([C@@H](C)CC)C(=O)N(C)CC(=O)N(C)[C@H]2C/C=C\CCN(C2=O)[C@@H](CC2CCC(F)(F)CC2)C(=O)N(C)CC(=O)N[C@@H](CCc2ccc(C(F)(F)F)c(Cl)c2)C(=O)N2C[C@@H](C)C[C@H]2C(=O)NC2(CC(C)(C)C2)C(=O)N1C [PP2454] | AA (a compound having 20 or more is denoted as AA) |  | 80.2 nM | A (a compound having 10 or more and less than 20 is denoted as A) | 1.2 nM |  |  |  | 
9 | CCC(CC)[C@H]1C(=O)N(C)[C@H](C(=O)N(C)C)CC(=O)N(C)[C@@H](COC)C(=O)N[C@@H]([C@@H](C)CC)C(=O)N(C)CC(=O)N(C)[C@H]2C/C=C\CCN(C2=O)[C@@H](Cc2ccc(C(F)(F)F)cc2)C(=O)N(C)CC(=O)N[C@@H](CCc2ccc(Cl)c(Cl)c2)C(=O)N2C[C@H](OC3CCCC3)C[C@H]2C(=O)NC2(CC(C)(C)C2)C(=O)N1C [PP2648] | A (a compound having 10 or more and less than 20 is denoted as A) |  | 68.5 nM | A (a compound having 10 or more and less than 20 is denoted as A) | 0.85 nM |  |  |  | 
10 | CCC[C@H]1C(=O)N[C@@H]([C@@H](C)CC)C(=O)N(C)CC(=O)N(C)[C@H]2C/C=C\CCN(C2=O)[C@@H](Cc2ccc(C(F)(F)F)cc2)C(=O)N(C)CC(=O)N[C@@H](CCc2cc(F)c(Cl)c(F)c2)C(=O)N2C[C@H](OCC)C[C@H]2C(=O)NC2(CCC2)C(=O)N(C)[C@@H](C(CC)CC)C(=O)N(C)[C@H](C(=O)N(C)C)CC(=O)N1C [PP1231] |  |  |  |  |  | AA (a compound having 20 or more is denoted as AA) | 0.56 nM | 23.1 nM | A (a compound having 10 or more and less than 20 is denoted as A)
11 | CCCN(C)C(=O)[C@@H]1CC(=O)N(C)[C@@H](CC(C)C)C(=O)N[C@@H]([C@@H](C)CC)C(=O)N(C)CC(=O)N(C)[C@H]2C/C=C\CCN(C2=O)[C@@H](Cc2ccc(C(F)(F)F)cc2)C(=O)N(C)CC(=O)N[C@@H](CCc2cc(F)c(C(F)(F)F)c(F)c2)C(=O)N2C[C@H](OCC)C[C@H]2C(=O)N[C@]2(C[C@H](OC)C2)C(=O)N(C)[C@@H](C2CCCC2)C(=O)N1C [PP3353] | A (a compound having 10 or more and less than 20 is denoted as A) | 0.17 nM | 14.1 nM | A (a compound having 10 or more and less than 20 is denoted as A) |  |  |  |  | 
12 | CCO[C@@H]1C[C@H]2C(=O)NC3(CC(C)(C)C3)C(=O)N(C)[C@@H](C(CC)CC)C(=O)N(C)[C@H](C(=O)N(C)C)CC(=O)N(C)[C@@H](COC)C(=O)N[C@@H]([C@@H](C)CC)C(=O)N(C)CC(=O)N(C)[C@H]3C/C=C\CCN(C3=O)[C@@H](CC3CCCCC3)C(=O)N(C)CC(=O)N[C@@H](CCc3ccc(C(F)(F)F)c(Cl)c3)C(=O)N2C1 [PP2468] | AA (a compound having 20 or more is denoted as AA) |  | 72.2 nM | A (a compound having 10 or more and less than 20 is denoted as A) | 1.3 nM |  |  |  | 
13 | CC[C@H](C)[C@@H]1NC(=O)[C@H](CC2CC2)N(C)C(=O)C[C@@H](C(=O)N(C)C)N(C)C(=O)[C@H](C2CCCC2)N(C)C(=O)C2(CCCC2)NC(=O)[C@@H]2CCCN2C(=O)[C@H](CCc2cc(F)c(C(F)(F)F)c(F)c2)NC(=O)CN(C)C(=O)[C@H](Cc2ccc(C(F)(F)F)cc2)N2C[C@H](C)[C@H](C)C[C@@H](C2=O)N(C)C(=O)CN(C)C1=O [PP1368] |  |  |  |  |  | A (a compound having 10 or more and less than 20 is denoted as A) | 0.061 nM | 2.9 nM | B (a compound having 3 or more and less than 10 is denoted as B)
14 | CCOC[C@H]1C(=O)N[C@@H]([C@@H](C)CC)C(=O)N(C)CC(=O)N(C)[C@H]2C/C=C\CCN(C2=O)[C@@H](Cc2ccc(C(F)(F)F)cc2)C(=O)N(C)CC(=O)N[C@@H](CCc2ccc(C(F)(F)F)c(OC)c2)C(=O)N2C[C@H](OCC)C[C@H]2C(=O)N(C)C2(CCC2)C(=O)N(C)[C@@H](C(CC)CC)C(=O)N(C)[C@H](C(=O)N(C)C)CC(=O)N1C [PP2383] | A (a compound having 10 or more and less than 20 is denoted as A) |  | 5.2 nM | A (a compound having 10 or more and less than 20 is denoted as A) | 0.12 nM |  |  |  | 
